Patent publication US8735384B2, “Amino heteroaryl compounds as beta-secretase modulators and methods of use” (Amgen Inc., priority 2010, dated 2014)
Like-named read-outs stand apart in the source and are kept apart here.

Tests used:
[1] = tested on: Aβ40 in conditioned medium of cells stably expressing Amyloid Precursor Protein (APP); assay: In vitro BACE cell-based assay (HEK cell assay), Aβ40 sandwich ELISA; conditions: inhibition of Aβ40, 24 h incubation, read-out: HEK cell assay (IC50 class)
Method in brief: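 APP-stably expressing cells (40K/well) grown 24 h, then treated 24 h with 10-point doses from 100 μM or 10 μM top (0.1% DMSO). Secreted Aβ40 quantified by sandwich ELISA (pAb40 capture, biotinylated 6E10 detection, europium time-resolved fluorescence); IC50 from percent inhibition versus concentration.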

BACE1 = BACE1 (Homo sapiens, UniProt P56817); assay: In vitro enzymatic BACE FRET assay; format: biochemical; conditions: beta secretase enzyme 0.2 nM, FRET substrate 50 nM, pH 4.2; read-out: BACE1 FRET assay (IC50 class)
Method in brief: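 Beta-secretase (0.2 nM) was pre-incubated 1 h with serially diluted inhibitor in 0.05 M acetate pH 4.2, 10% DMSO, 100 uM genapol. Then 50 nM quenched peptide FRET substrate was added for 1 h. The reaction was stopped with Tris to neutral pH and fluorescence read ([…]).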

Sequence of BACE1 (P56817 46-501, species assumed): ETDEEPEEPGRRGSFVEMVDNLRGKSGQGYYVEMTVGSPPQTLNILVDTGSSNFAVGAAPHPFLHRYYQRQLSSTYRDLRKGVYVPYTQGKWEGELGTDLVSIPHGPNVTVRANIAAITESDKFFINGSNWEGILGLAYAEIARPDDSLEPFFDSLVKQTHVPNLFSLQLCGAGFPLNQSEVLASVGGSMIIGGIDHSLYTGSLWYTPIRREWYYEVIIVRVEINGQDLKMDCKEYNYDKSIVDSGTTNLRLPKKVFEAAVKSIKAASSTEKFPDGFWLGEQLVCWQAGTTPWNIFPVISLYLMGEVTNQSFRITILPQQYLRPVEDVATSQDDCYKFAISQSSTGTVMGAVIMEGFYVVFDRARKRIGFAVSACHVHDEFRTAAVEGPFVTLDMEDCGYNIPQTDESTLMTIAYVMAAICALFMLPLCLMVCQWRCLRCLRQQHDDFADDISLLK

Compound	IC50 ([1]; Homo sapiens, HEK293, 24 h) [nM]	IC50 (BACE1) [nM]	IC50 [1] [nM]
CCOC(=O)c1cc(F)cc(C)c1-c1ccc2nc(N)c(N3CCOCC3)cc2c1 [Example 129, ethyl 2-(2-amino-3-morpholinoquinolin-6-yl)-5-fluoro-3-methylbenzoate]	1010 to 5000	100 to 500	–
Cc1cccc(C(O)c2cnccn2)c1-c1ccc2nc(N)c(N3CCOCC3)cc2c1 (stereo not drawn) [Example 36, (2-(2-amino-3-morpholinoquinolin-6-yl)-3-methylphenyl)(pyrazin-2-yl)methanol]	1010 to 5000	1010 to 5000	–
CCCC(=N)c1cccc(C)c1-c1ccc2nc(N)c(N3CCOCC3)cc2c1 [Example 14, 6-(2-(1-iminobutyl)-6-methylphenyl)-3-morpholinoquinolin-2-amine]	> 5000	100 to 500	–
CCOC1CCCN(C(=O)c2cccc(C)c2-c2ccc3nc(N)c(N4CCOCC4)cc3c2)C1 (stereo not drawn) [Example 85, (2-(2-amino-3-morpholinoquinolin-6-yl)-3-methylphenyl)(3-ethoxypiperidin-1-yl)methanone]	1010 to 5000	100 to 500	–
C=CCN(CC=C)C(=O)c1cccc(C)c1-c1ccc2nc(N)c(N3CCOCC3)cc2c1 [Example 116, N,N-diallyl-2-(2-amino-3-morpholinoquinolin-6-yl)-3-methylbenzamide]	1010 to 5000	100 to 500	–
Cc1cccc(C(=O)N2CC[C@@H](F)C2)c1-c1ccc2nc(N)c(N3CCOCC3)cc2c1 [Example 69, (R)-(2-(2-amino-3-morpholinoquinolin-6-yl)-3-methylphenyl)(3-fluoropyrrolidin-1-yl)methanone]	100 to 500	< 100	–
Cc1cccc(C(=O)N2[C@H](C)CCC[C@@H]2C)c1-c1ccc2nc(N)c(N3CCOCC3)cc2c1 [Example 84, (2-(2-amino-3-morpholinoquinolin-6-yl)-3-methylphenyl)((2S,6R)-2,6-dimethylpiperidin-1-yl)methanone]	501 to 1000	< 100	–
Nc1nc2ccc(-c3ccccc3CC3CCOCC3)cc2cc1N1CCOCC1 [Example 13, 3-morpholino-6-(2-((tetrahydro-2H-pyran-4-yl)methyl)phenyl)quinolin-2-amine]	1010 to 5000	100 to 500	–
Cc1ccccc1-c1ccc2nc(N)c(N3CCOCC3)cc2c1 [Example 218, 3-morpholino-6-o-tolylquinolin-2-amine]	> 5000	501 to 1000	–
Cc1cnc(-c2cccc(C)c2-c2ccc3nc(N)c(N4CCOCC4)cc3c2)o1 [Example 32, 6-(2-methyl-6-(5-methyloxazol-2-yl)phenyl)-3-morpholinoquinolin-2-amine]	> 5000	1010 to 5000	–
Cc1cccc(C(=O)N2CCC(F)(F)C2)c1-c1ccc2nc(N)c(C3CCOCC3)cc2c1 [Example 211, (2-(2-amino-3-(tetrahydro-2H-pyran-4-yl)quinolin-6-yl)-3-methylphenyl)(3,3-difluoropyrrolidin-1-yl)methanone]	100 to 500	< 100	–

The next lines start with the values.

IC50 ([1]; Homo sapiens, HEK293, 24 h) [nM]	IC50 (BACE1) [nM]	IC50 [1] [nM]	Compound
100 to 500	< 100	–	Cc1cccc(C(=O)N2CCCC2)c1-c1ccc2nc(N)c(C3CCCOCC3)cc2c1 (stereo not drawn) [Example 206, (2-(2-amino-3-(oxepan-4-yl)quinolin-6-yl)-3-methylphenyl)(pyrrolidin-1-yl)methanone]
1010 to 5000	< 100	–	Cc1cccc(Cc2cccc(C#N)c2)c1-c1ccc2nc(N)c(N3CCOCC3)cc2c1 [Example 200, 3-(2-(2-amino-3-morpholinoquinolin-6-yl)-3-methylbenzyl)benzonitrile]
< 100	< 100	–	Cc1cccc(C(=O)N2CCCC2)c1-c1ccc2nc(N)c(C3CCOC(C)(C)C3)cc2c1 (stereo not drawn) [Example 205, (2-(2-amino-3-(2,2-dimethyltetrahydro-2H-pyran-4-yl)quinolin-6-yl)-3-methylphenyl)(pyrrolidin-1-yl)methanone]
–	< 100	1010 to 5000	2-(2-amino-3-(2,6-dimethylmorpholino)quinolin-6-yl)-N-ethyl-3-methyl-N-propylbenzamide [Example 216]
501 to 1000	< 100	–	Cc1cccc(C(=O)N(C)C2CCC(C)CC2)c1-c1ccc2nc(N)c(N3CCOCC3)cc2c1 (stereo not drawn) [Example 122, 2-(2-amino-3-morpholinoquinolin-6-yl)-N,3-dimethyl-N-(4-methylcyclohexyl)benzamide]
1010 to 5000	< 100	–	Cc1cccc(C(=O)N2CCC(C)CC2)c1-c1ccc2nc(N)c(N3CCOCC3)cc2c1 [Example 80, (2-(2-amino-3-morpholinoquinolin-6-yl)-3-methylphenyl)(4-methylpiperidin-1-yl)methanone]
501 to 1000	< 100	–	Cc1cccc(C(=O)N2CCCCC2C)c1-c1ccc2nc(N)c(N3CCOCC3)cc2c1 (stereo not drawn) [Example 87, (2-(2-amino-3-morpholinoquinolin-6-yl)-3-methylphenyl)(2-methylpiperidin-1-yl)methanone]
